Key:
Type in all cases: in vivo
Amaranthus retroflexus [1] = test: Pre-emergence herbicidal action, AMARE; design: key to Herbicidal action against AMARE: % activity: 100 = plants have died, 0 = like control plants; conditions: for herbicidal action AMARE: dosage 320 g/ha
Source text: (§1) 1. Pre-Emergence Herbicidal Action Against Harmful Plants Seeds of monocotyledonous and dicotyledonous weed plants and crop plants are laid out in sandy loam soil in wood-fiber pots and covered with soil. The compounds of the invention, formulated in the form of wettable powders (WP) or as emulsion concentrates (EC), are then applied to the surface of the covering soil in the form of an aqueous suspension or emulsion at a water application rate equating to 600 to 800 l/ha, with addition of 0.2% wetting agent. After the treatment, the pots are placed in a greenhouse and kept under good growth conditions for the trial plants. The damage to the test plants is scored visually after a test period of 3 weeks by comparison with untreated controls (herbicidal activity in percent (%): 100% activity=the plants have died, 0% activity=like control plants). […] The tables below illustrate, in an exemplary manner, the […] herbicidal action of the compounds according to the invention, the herbicidal activity being stated in percent. [table] In the experiments that follow, herbicidal action of numerous inventive compounds and the known compounds that are structurally closest from D1 (WO 2012/028579 A1) and D2 (WO 2018/202535 A1) were compared under the above-specified conditions by the pre-emergence and post-emergence method. The example numbers given in the tables relate to the compounds disclosed in the respective documents. In addition to the compounds disclosed in D1 and D2, the following compounds V-1 to V-14 that are encompassed by D1 or D2 but are not compounds specified therein were used in the comparative experiments: • V-1: 2-(methylsulfanyl)-3-(methylsulfinyl)-N-(1-methyl-1H-tetrazol-5-yl)-4-(trifluoromethyl)benzamide • V-2: 2-(methylsulfanyl)-3-(methylsulfonyl)-N-(1-methyl-1H-tetrazol-5-yl)-4-(trifluoromethyl)benzamide • V-3: 2,3-bis(ethylsulfanyl)-N-(1-methyl-1H-tetrazol-5-yl)-4-(trifluoromethyl)benzamide • V-4: 2-chloro-3-(ethylsulfanyl)-N-(1-methyl-1H-tetrazol-5-yl)-4-(trifluoromethyl)benzamide • V-5: 2-chloro-4-iodo-3-(methylsulfanyl)-N-(1-methyl-1H-tetrazol-5-yl)benzamide • V-6: 2-chloro-4-iodo-3-(methylsulfinyl)-N-(1-methyl-1H-tetrazol-5-yl)benzamide • V-7: 2-chloro-4-iodo-3-(methylsulfonyl)-N-(1-methyl-1H-tetrazol-5-yl)benzamide • V-8: 2-bromo-3-(methylsulfanyl)-N-(1-methyl-1H-tetrazol-5-yl)-4-(trifluoromethyl)benzamide • V-9: 2-bromo-3-(methylsulfinyl)-N-(1-methyl-1H-tetrazol-5-yl)-4-(trifluoromethyl)benzamide • V-10: 2-bromo-3-(methylsulfonyl)-N-(1-methyl-1H-tetrazol-5-yl)-4-(trifluoromethyl)benzamide • V-11: 2-bromo-3-(ethylsulfanyl)-N-(1-methyl-1H-tetrazol-5-yl)-4-(trifluoromethyl)benzamide • V-12: 2-bromo-3-(ethylsulfinyl)-N-(1-methyl-1H-tetrazol-5-yl)-4-(trifluoromethyl)benzamide • V-13: 2-bromo-3-(ethylsulfonyl)-N-(1-methyl-1-1H-tetrazol-5-yl)-4-(trifluoromethyl)benzamide • V-14: 2-cyclopropyl-3-(ethylsulfanyl)-N-(1-methyl-1H-tetrazol-5-yl)-4-(trifluoromethyl)benzamide Herbicidal Pre-Emergence Action: […]

Echinochloa crus-galli [2] = test: Pre-emergence herbicidal action, ECHCG; conditions: for herbicidal action ECHCG: dosage 320 g/ha
Source text: as §1

Matricaria inodora [3] = test: Pre-emergence herbicidal action, MATIN; design: key to Herbicidal action against MATIN: % activity: 100 = plants have died, 0 = like control plants; conditions: for herbicidal action MATIN: dosage 320 g/ha
Source text: as §1

Stellaria media [4] = test: Pre-emergence herbicidal action, STEME; design: key to Herbicidal action against STEME: % activity: 100 = plants have died, 0 = like control plants; conditions: for herbicidal action STEME: dosage 320 g/ha
Source text: as §1

Veronica persica [5] = test: Pre-emergence herbicidal action, VERPE; design: key to Herbicidal action against VERPE: % activity: 100 = plants have died, 0 = like control plants; conditions: for herbicidal action VERPE: dosage 320 g/ha
Source text: as §1

Viola tricolor [6] = test: Pre-emergence herbicidal action, VIOTR; design: key to Herbicidal action against VIOTR: % activity: 100 = plants have died, 0 = like control plants; conditions: for herbicidal action VIOTR: dosage 320 g/ha
Source text: as §1

Abutilon theophrasti [7] = test: Post-emergence herbicidal action, ABUTH; design: key: % herbicidal action vs untreated; 100 = plants died, 0 = like control; conditions: post-emergence
Description: (§2) [table] 2. Post-Emergence Herbicidal Action Against Harmful Plants Seeds of monocotyledonous and dicotyledonous weed and crop plants are laid out in sandy loam soil in wood-fiber pots, covered with soil and cultivated in a greenhouse under good growth conditions. 2 to 3 weeks after sowing, the test plants are treated at the one-leaf stage. The compounds of the invention, formulated in the form of wettable powders (WP) or as emulsion concentrates (EC), are then sprayed onto the green parts of the plants in the form of an aqueous suspension or emulsion at a water application rate equating to 600 to 800 l/ha, with addition of 0.2% wetting agent. After the test plants have been left to stand in the greenhouse under optimal growth conditions for about 3 weeks, the action of the preparations is assessed visually in comparison to untreated controls (herbicidal action in percent (%): 100% activity=the plants have died, 0% activity=like control plants). […] The tables below illustrate, in an exemplary manner, the post-emergence herbicidal action of the compounds according to the invention, the herbicidal activity being stated in percent. In the experiments that follow, herbicidal action of numerous inventive compounds and the known compounds that are structurally closest from D1 (WO 2012/028579 A1) and D2 (WO 2018/202535 A1) were compared under the above-specified conditions by the pre-emergence and post-emergence method. The example numbers given in the tables relate to the compounds disclosed in the respective documents. In addition to the compounds disclosed in D1 and D2, the following compounds V-1 to V-14 that are encompassed by D1 or D2 but are not compounds specified therein were used in the comparative experiments: • V-1: 2-(methylsulfanyl)-3-(methylsulfinyl)-N-(1-methyl-1H-tetrazol-5-yl)-4-(trifluoromethyl)benzamide • V-2: 2-(methylsulfanyl)-3-(methylsulfonyl)-N-(1-methyl-1H-tetrazol-5-yl)-4-(trifluoromethyl)benzamide • V-3: 2,3-bis(ethylsulfanyl)-N-(1-methyl-1H-tetrazol-5-yl)-4-(trifluoromethyl)benzamide • V-4: 2-chloro-3-(ethylsulfanyl)-N-(1-methyl-1H-tetrazol-5-yl)-4-(trifluoromethyl)benzamide • V-5: 2-chloro-4-iodo-3-(methylsulfanyl)-N-(1-methyl-1H-tetrazol-5-yl)benzamide • V-6: 2-chloro-4-iodo-3-(methylsulfinyl)-N-(1-methyl-1H-tetrazol-5-yl)benzamide • V-7: 2-chloro-4-iodo-3-(methylsulfonyl)-N-(1-methyl-1H-tetrazol-5-yl)benzamide • V-8: 2-bromo-3-(methylsulfanyl)-N-(1-methyl-1H-tetrazol-5-yl)-4-(trifluoromethyl)benzamide • V-9: 2-bromo-3-(methylsulfinyl)-N-(1-methyl-1H-tetrazol-5-yl)-4-(trifluoromethyl)benzamide • V-10: 2-bromo-3-(methylsulfonyl)-N-(1-methyl-1H-tetrazol-5-yl)-4-(trifluoromethyl)benzamide • V-11: 2-bromo-3-(ethylsulfanyl)-N-(1-methyl-1H-tetrazol-5-yl)-4-(trifluoromethyl)benzamide • V-12: 2-bromo-3-(ethylsulfinyl)-N-(1-methyl-1H-tetrazol-5-yl)-4-(trifluoromethyl)benzamide • V-13: 2-bromo-3-(ethylsulfonyl)-N-(1-methyl-1-1H-tetrazol-5-yl)-4-(trifluoromethyl)benzamide • V-14: 2-cyclopropyl-3-(ethylsulfanyl)-N-(1-methyl-1H-tetrazol-5-yl)-4-(trifluoromethyl)benzamide Herbicidal Pre-Emergence Action: […]

Amaranthus retroflexus [8] = test: Post-emergence herbicidal action, AMARE; design: key: % herbicidal action vs untreated; 100 = plants died, 0 = like control; conditions: post-emergence
Description: as §2

Echinochloa crus-galli [9] = test: Post-emergence herbicidal action, ECHCG; design: key: % herbicidal action vs untreated; 100 = plants died, 0 = like control; conditions: post-emergence
Description: as §2

Setaria viridis = test: Post-emergence herbicidal action, SETVI; design: key: % herbicidal action vs untreated; 100 = plants died, 0 = like control; conditions: post-emergence
Description: as §2

Stellaria media [10] = test: Post-emergence herbicidal action, STEME; design: key: % herbicidal action vs untreated; 100 = plants died, 0 = like control; conditions: post-emergence
Description: as §2

Veronica persica [11] = test: Post-emergence herbicidal action, VERPE; design: key: % herbicidal action vs untreated; 100 = plants died, 0 = like control; conditions: post-emergence
Description: as §2

Viola tricolor [12] = test: Post-emergence herbicidal action, VIOTR; design: key: % herbicidal action vs untreated; 100 = plants died, 0 = like control; conditions: post-emergence
Description: as §2

Abutilon theophrasti [13] = test: Pre-emergence herbicidal action, ABUTH; conditions: dosage 320 g/ha
Source text: as §1

Matricaria inodora [14] = test: Post-emergence herbicidal action, MATIN; design: key: % herbicidal action vs untreated; 100 = plants died, 0 = like control; conditions: post-emergence, dosage 80 g/ha
Description: as §2

Pharbitis purpurea = test: Post-emergence herbicidal action, PHBPU; conditions: post-emergence, dosage 80 g/ha
Description: as §2

[15] = comparative experiment, 20 g of a.i./ha
[16] = comparative experiment, 5 g of a.i./ha

SMILES | herbicidal action ABUTH (Abutilon theophrasti [13]) [%] | herbicidal action AMARE (Amaranthus retroflexus [1]) [%] | herbicidal action ECHCG (Echinochloa crus-galli [2]) [%] | herbicidal action MATIN (Matricaria inodora [3]) [%] | herbicidal action STEME (Stellaria media [4]) [%] | herbicidal action VERPE (Veronica persica [5]) [%] | herbicidal action VIOTR (Viola tricolor [6]) [%] | Herbicidal action against AMARE (Amaranthus retroflexus [8]; dosage 80 g/ha) | Herbicidal action against ECHCG (Echinochloa crus-galli [9]; dosage 80 g/ha) | Herbicidal action against MATIN (Matricaria inodora [14]) | Herbicidal action against PHBPU (Pharbitis purpurea) | Herbicidal action against SETVI (Setaria viridis; dosage 80 g/ha) | Herbicidal action against STEME (Stellaria media [10]; dosage 80 g/ha) | Herbicidal action against VERPE (Veronica persica [11]; dosage 80 g/ha) | Herbicidal action against VIOTR (Viola tricolor [12]; dosage 80 g/ha) | Herbicidal action against ABUTH (Abutilon theophrasti [7]; dosage 80 g/ha) | other results
CCSc1c(C(=O)Nc2nnnn2C)ccc(C(F)(F)F)c1SCC [Example V-3, 2,3-bis(ethylsulfanyl)-N-(1-methyl-1H-tetrazol-5-yl)-4-(trifluoromethyl)benzamide, reference compound] |  |  |  |  |  |  |  |  |  |  |  |  |  |  |  |  | Herbicidal action against AMARE (Amaranthus retroflexus [1]; [15]): 0; pest or weed control at 20 g/ha (Echinochloa crus-galli [2]; Echinochloa crus-galli, 504 h, comparative experiment, 20 g of a.i./ha, read-out: Herbicidal action against ECHCG): 0%; Herbicidal action against MATIN (Matricaria inodora [3]; [15]): 0; Herbicidal action against STEME (Stellaria media [4]; [15]): 0; Herbicidal action against VERPE (Veronica persica [5]; [15]): 0; Herbicidal action against VIOTR (Viola tricolor [6]; [15]): 0; Herbicidal action against ABUTH (Abutilon theophrasti [7]; [16]): 0; Herbicidal action against AMARE (Amaranthus retroflexus [8]; [16]): 0; Herbicidal action against ECHCG (Echinochloa crus-galli [9]; [16]): 0; Herbicidal action against SETVI (Setaria viridis; [16]): 0; Herbicidal action against STEME (Stellaria media [10]; [16]): 0; Herbicidal action against VERPE (Veronica persica [11]; [16]): 0; Herbicidal action against VIOTR (Viola tricolor [12]; [16]): 0
COc1c(C(=O)Nc2nnnn2C)ccc(C(F)(F)F)c1CS(C)(=O)=O [Example 1-136] | 100 | 100 | 100 | 90 | 80 | 100 | 80 | 90 | 90 | 90 | 90 | 90 | 100 | 100 | 90 |  | 
CSCc1c(S(C)(=O)=O)ccc(C(=O)Nc2nnnn2C)c1Cl [Example 1-278] | 90 | 100 | 90 |  | 80 | 90 |  | 100 | 100 |  | 90 | 100 | 90 |  | 100 | 90 | 
Cc1c(C(=O)Nc2nnnn2C)ccc(S(C)(=O)=O)c1C[S+](C)[O-] (centres unmarked) [Example 1-38] |  | 80 |  | 90 | 90 | 100 |  | 100 | 90 |  |  |  | 100 | 90 | 80 |  | 
CCCn1nnnc1NC(=O)c1ccc(C)c(CSC)c1Cl [Example 3-287] |  | 100 | 100 | 100 | 90 | 90 | 80 | 100 | 90 | 100 | 80 |  | 100 |  | 90 | 90 | 
